Experiments:
Type in all cases: in vivo
[1] = test system: Echinochloa oryzacola Vasing.; test: Test Example 1: herbicidal activity, application before weed generation in submerged conditions (symbol A); details: application herbicide amount 320 g/ha
How it was run: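 Pre-emergence, paddy conditions: emulsifiable formulation diluted in water, dosed onto floodwater (4 cm depth) on sowing day. Alluvial soil; weeds sown mixed; rice transplanted at 2.5-leaf stage. Greenhouse 25–30 °C, 3 wk. Score 0–5 (5 = ≥90% kill, 0 = ≤5%).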

transplanted rice plant = test: Test Example 1: effect on crop, application before weed generation in submerged conditions (symbol a); details: application herbicide amount 320 g/ha
How it was run: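 Rice at 2.5 leaf stage transplanted into submerged soil (4 cm depth) sown with three weed species; herbicide applied before weed emergence.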

Scirpus juncoides = test: Test Example 2: herbicidal activity, application during weed generation in submerged conditions (symbol B); details: Table 23; application herbicide amount 320 g/ha; grade 0-5 by criteria of Test Example 1
How it was run: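 Treatment timing was the one- to two-leaf stage, with diluted emulsifiable compound dropped onto the paddy water (depth 4 cm) over alluvial soil. All three species grew from a mixed sowing in a 25° C. to 30° C. greenhouse. Injury was judged by eye 3 weeks on.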

[2] = test system: Echinochloa crus-galli var. crus-galli; test: Test Example 3: herbicidal effect by foliage application, Wagner pot (symbol H); details: application herbicide amount 320 g/ha
How it was run: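 The compound, formulated as an emulsion and diluted with water to a predetermined rate, is applied uniformly to leaves of two-week-old seedlings growing in submerged alluvial soil at 25–30 °C. Rice is included. Each plant is assessed 3 weeks later using defined criteria.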

[3] = test system: directly sowed rice plant; test: Test Example 3: effect on crop by foliage application, Wagner pot (symbol b); details: application herbicide amount 320 g/ha
How it was run: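 Greenhouse culture at 25–30 °C of seeded rice, Cyperus difformis, Leptochloa chinensis and Echinochloa crus-galli var. crus-galli, in alluvial soil held under 0.1–0.5 cm of water in a Wagner pot.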

wheat [4] = test: Test Example 4: effect on crop by soil treatment (symbol e); details: application herbicide amount 320 g/ha
How it was run: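 Diluvial soil (sterilized) in boxes; seeds placed spot-wise alongside weed species; ~1.5 cm covering soil. Greenhouse, 25–30° C.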

Alopecurus myosuroides = test: Test Example 5: herbicidal effect by foliage application, plastic box (symbol J); details: 320 g/ha, 3 weeks after application
How it was run: (§1)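 Herbicide, formulated as an emulsion and diluted in water, is sprayed onto the aerial parts of 14-day seedlings. These were grown at 25° C. to 30° C. in sterilized diluvial soil; effects are graded after 3 weeks.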

Amaranthus retroflexus = test: Test Example 5: herbicidal effect by foliage application, plastic box (symbol N); details: 320 g/ha, 3 weeks after application
How it was run: as §1

Stellaria media = test: Test Example 5: herbicidal effect by foliage application, plastic box (symbol P); details: 320 g/ha, 3 weeks after application
How it was run: as §1

corn = test: Test Example 5: effect on crop by foliage application, plastic box (symbol c); details: 320 g/ha, 3 weeks after application
How it was run: (§2)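 Plants were raised from seed in a greenhouse (25° C. to 30° C.) after sowing in a plastic box of sterilized diluvial soil.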

rice plant = test: Test Example 5: effect on crop by foliage application, plastic box (symbol b); details: 320 g/ha, 3 weeks after application
How it was run: as §2

wheat [5] = test: Test Example 5: effect on crop by foliage application, plastic box (symbol e); details: 320 g/ha, 3 weeks after application
How it was run: as §2

beet = test: Test Example 5: effect on crop by foliage application, plastic box (symbol f); details: 320 g/ha, 3 weeks after application
How it was run: as §2

Structure (SMILES)	Herbicidal effect grade, A: Echinochloa oryzacola Vasing. [1]	Effect grade on crop, a: transplanted rice plant (transplanted rice plant)	Herbicidal effect grade, B: Scirpus juncoides (Scirpus juncoides)	herbicidal effect on H (Echinochloa crus-galli var. crus-galli), grade 0-5 [2]	effect on crop b (directly sowed rice plant), grade 0-5 [3]	e (wheat) effect on crop grade (wheat [4])	J: Alopecurus myosuroides, herbicidal effect grade (Alopecurus myosuroides)	N: Amaranthus retroflexus, herbicidal effect grade (Amaranthus retroflexus)	P: Stellaria media, herbicidal effect grade (Stellaria media)	c: corn, effect on crop grade (corn)	b: directly sowed rice plant, effect on crop grade (rice plant)	e: wheat, effect on crop grade (wheat [5])	f: beet, effect on crop grade (beet)
CON=C(CC1CC(O)=C(c2c(C)cc(C)cc2C)C1=O)C1CC1 (centres unmarked) [1-046]	5 (Herbicidal ratio of 90% or more (almost completely withered))	5 (Herbicidal ratio of 90% or more (almost completely withered))	5 (Herbicidal ratio of 90% or more (almost completely withered))	5 (Herbicidal ratio of 90% or more (almost completely withered))	5 (Herbicidal ratio of 90% or more (almost completely withered))	4 (Herbicidal ratio of 70% or higher and lower than 90%)	5 (Herbicidal ratio of 90% or more (almost completely withered))	2 (Herbicidal ratio of 20% or higher and lower than 40%)	2 (Herbicidal ratio of 20% or higher and lower than 40%)	5 (Herbicidal ratio of 90% or more (almost completely withered))	5 (Herbicidal ratio of 90% or more (almost completely withered))	4 (Herbicidal ratio of 70% or higher and lower than 90%)	0 (Herbicidal ratio of 5% or lower (almost no effect))
CON=C(CC1CC(O)=C(c2c(C)cc(C)cc2C)C1=O)c1ccccc1 (centres unmarked) [1-047]	4 (Herbicidal ratio of 70% or higher and lower than 90%)	1 (Herbicidal ratio of 5% or higher and lower than 20%)	0 (Herbicidal ratio of 5% or lower (almost no effect))	1 (Herbicidal ratio of 5% or higher and lower than 20%)	2 (Herbicidal ratio of 20% or higher and lower than 40%)	0 (Herbicidal ratio of 5% or lower (almost no effect))	3 (Herbicidal ratio of 40% or higher and lower than 70%)	0 (Herbicidal ratio of 5% or lower (almost no effect))	0 (Herbicidal ratio of 5% or lower (almost no effect))	0 (Herbicidal ratio of 5% or lower (almost no effect))	4 (Herbicidal ratio of 70% or higher and lower than 90%)	0 (Herbicidal ratio of 5% or lower (almost no effect))	0 (Herbicidal ratio of 5% or lower (almost no effect))
CON=C(CC1CC(O)=C(c2c(C)cc(C)cc2C)C1=O)C(C)C (centres unmarked) [1-048]	5 (Herbicidal ratio of 90% or more (almost completely withered))	5 (Herbicidal ratio of 90% or more (almost completely withered))	4 (Herbicidal ratio of 70% or higher and lower than 90%)	5 (Herbicidal ratio of 90% or more (almost completely withered))	5 (Herbicidal ratio of 90% or more (almost completely withered))	2 (Herbicidal ratio of 20% or higher and lower than 40%)	5 (Herbicidal ratio of 90% or more (almost completely withered))	1 (Herbicidal ratio of 5% or higher and lower than 20%)	3 (Herbicidal ratio of 40% or higher and lower than 70%)	4 (Herbicidal ratio of 70% or higher and lower than 90%)	5 (Herbicidal ratio of 90% or more (almost completely withered))	0 (Herbicidal ratio of 5% or lower (almost no effect))	1 (Herbicidal ratio of 5% or higher and lower than 20%)
CON=C(C)C(c1ccc(F)cc1)C1CC(O)=C(c2c(C)cc(C)cc2C)C1=O (centres unmarked) [1-049]	0 (Herbicidal ratio of 5% or lower (almost no effect))	0 (Herbicidal ratio of 5% or lower (almost no effect))	0 (Herbicidal ratio of 5% or lower (almost no effect))	0 (Herbicidal ratio of 5% or lower (almost no effect))	0 (Herbicidal ratio of 5% or lower (almost no effect))	0 (Herbicidal ratio of 5% or lower (almost no effect))	0 (Herbicidal ratio of 5% or lower (almost no effect))	0 (Herbicidal ratio of 5% or lower (almost no effect))	0 (Herbicidal ratio of 5% or lower (almost no effect))	0 (Herbicidal ratio of 5% or lower (almost no effect))	0 (Herbicidal ratio of 5% or lower (almost no effect))	0 (Herbicidal ratio of 5% or lower (almost no effect))	0 (Herbicidal ratio of 5% or lower (almost no effect))
CON=CCC1CC(O)=C(c2c(C)cc(C)cc2C)C1=O (centres unmarked) [1-050]	4 (Herbicidal ratio of 70% or higher and lower than 90%)	4 (Herbicidal ratio of 70% or higher and lower than 90%)	0 (Herbicidal ratio of 5% or lower (almost no effect))	5 (Herbicidal ratio of 90% or more (almost completely withered))	5 (Herbicidal ratio of 90% or more (almost completely withered))	0 (Herbicidal ratio of 5% or lower (almost no effect))	4 (Herbicidal ratio of 70% or higher and lower than 90%)	0 (Herbicidal ratio of 5% or lower (almost no effect))	0 (Herbicidal ratio of 5% or lower (almost no effect))	0 (Herbicidal ratio of 5% or lower (almost no effect))	5 (Herbicidal ratio of 90% or more (almost completely withered))	0 (Herbicidal ratio of 5% or lower (almost no effect))	0 (Herbicidal ratio of 5% or lower (almost no effect))

From US11000033B2, “Ketone or oxime compound, and herbicide” (NISSAN CHEMICAL CORPORATION, priority 2014, dated 2021)
